# Source: patent publication US7396848B1, “Neurotrophin production/secretion promoting agent” (Takeda Pharmaceutical Company Limited, priority 2000, dated 2008)
# Assays:
# NGF [1] = assay: NGF production/secretion promoting activity in cultured Schwann cells (enzyme immunoassay of culture fluid); format: cell-based, SD rats; details: 24 hours, concentrations of 10^−4 M to 10^−8 M, result in words
# Method: Schwann cells were prepared by subjecting the dorsal spinal root ganglion collected from 10 newborn SD rats to enzyme treatment using 0.25% trypsin containing 0.01% deoxyribonuclease (DNase, produced by Sigma), followed by cloning from the cell group obtained. […]
# The culture fluid obtained in each run of Reference Example 1A was recovered and assayed for the neurotrophin content therein. […] After washing, 30 μl of 4-methylumbelliferyl-β-D-galactoside (produced by Sigma) (10 μg/μl) was added to the substrate, the reaction was allowed to proceed at room temperature for 4 hours and then terminated by addition of 130 μl of 0.1 M glycine-sodium hydroxide buffer (pH 10.3), and the fluorescent intensity of the 4-methylumbelliferone produced was determined (Ex: 360 nm; Em: 450 nm). The amount of NGF was calculated based on a standard curve and expressed in terms of relative multiplicity in relation to the amount of NGF (control) produced and secreted by cells treated in the same manner without adding the test compound. […]
# BDNF [2] = assay: BDNF production/secretion promoting activity in cultured Schwann cells (enzyme immunoassay of culture fluid); format: cell-based, SD rats; details: 24 hours, concentrations of 10^−4 M to 10^−8 M, result in words
# NGF [3] = assay: NGF content in peripheral and brain tissues of STZ diabetic neuropathy model rats; format: in vivo, SD rats
# Method: (§1) The culture fluid obtained in each run of Reference Example 1A was recovered and assayed for the neurotrophin content therein. NGF was assayed by the enzyme immunoassay method described by Murase et al. in Biochemistry International, vol. 22, p. 807 (1990). Thus, an anti-NGF antibody (100 μg/ml) (antibody obtained by using mouse NGF as the antigen and immunizing New Zealand albino rabbits therewith) was distributed in 10-μl portions in the wells of 96-well round bottom plates and antibody adsorption was allowed to proceed by 2 hours standing at room temperature. After removing the antibody, each well was washed three times with a washing solution. A 10-μl portion of the above recovered culture fluid or standard NGF solution was placed in each well and the plates were allowed to stand at room temperature for 2.5 hours. After three times washings of each well, 20 μl of biotinylated anti-NGF antibody (35 ng/ml) was added thereto, followed by overnight standing at 4° C. […] After washing, 30 μl of 4-methylumbelliferyl-β-D-galactoside (produced by Sigma) (10 μg/μl) was added to the substrate, the reaction was allowed to proceed at room temperature for 4 hours and then terminated by addition of 130 μl of 0.1 M glycine-sodium hydroxide buffer (pH 10.3), and the fluorescent intensity of the 4-methylumbelliferone produced was determined (Ex: 360 nm; Em: 450 nm). The amount of NGF was calculated based on a standard curve and expressed in terms of relative multiplicity in relation to the amount of NGF (control) produced and secreted by cells treated in the same manner without adding the test compound. […]
# (§2) A diabetic neuropathy model was made by injecting streptozotocin (STZ) into the tail vein of male 6-week-old SD rats in a dose of 70 mg/kg body weight. […] After 30 minutes of centrifugation at 15,000 rpm, the supernatant was used as the sample and the NGF and BDNF contents were determined in the same manner as in Experimental Example 1.
# BDNF [4] = assay: BDNF content in peripheral and brain tissues of STZ diabetic neuropathy model rats; format: in vivo, SD rats
# Method: as §1, §2
# [5] = test system: diabetic neuropathy model; assay: Motor nerve conduction velocity in STZ diabetic neuropathy model rats; format: in vivo, SD rats; details: 10 mg/kg body weight/day orally for 4 months
# Method: A diabetic neuropathy model was made by injecting streptozotocin (STZ) into the tail vein of male 6-week-old SD rats in a dose of 70 mg/kg body weight. After 4 moths of housing, 10 mg/kg body weight/day of compound (5) which was suspended in 0.5% (w/v) methylcellulose was orally administered for 4 months. After administration, the rats were anesthetized with pentobarbital and the body temperature of the rats were kept 37° C. using a hotplate heated and an electric lamp. Then, conduction velocities of motor nerves and sensory nerves were determined using an induction potential test device (Neuropack 2, produced by Nihon Kohden) in the following manner. Needle electrodes were placed at the thigh or the ankle of the rats. Then, the sciatic nerve or the tibial nerve was stimulated at, in principle, 1.6 mA and the action potential was recorded from the plantar muscle. The motor nerve conduction velocity was calculated from the distance and latencies of the two different stimulating sites.
# [6] = test system: diabetic neuropathy model; assay: Sensory nerve conduction velocity in STZ diabetic neuropathy model rats; format: in vivo, SD rats; details: 10 mg/kg body weight/day orally for 4 months
# Method: A diabetic neuropathy model was made by injecting streptozotocin (STZ) into the tail vein of male 6-week-old SD rats in a dose of 70 mg/kg body weight. After 4 moths of housing, 10 mg/kg body weight/day of compound (5) which was suspended in 0.5% (w/v) methylcellulose was orally administered for 4 months. After administration, the rats were anesthetized with pentobarbital and the body temperature of the rats were kept 37° C. using a hotplate heated and an electric lamp. Then, conduction velocities of motor nerves and sensory nerves were determined using an induction potential test device (Neuropack 2, produced by Nihon Kohden) in the following manner. Proximal or distal positions of the sural nerve of the rats were stimulated at, in principle, 0.8 mA and the potential was recorded at the plantar skin. The sensory nerve conduction velocity was calculated from the distance and latencies of the two different stimulating sites.
# [7] = test system: diabetic neuropathy model; assay: Hyperalgesia test (pressure-stimulant algesiometer, pain threshold of hind-limb) in STZ diabetic neuropathy model rats; format: in vivo, SD rats; details: 10 mg/kg body weight/day orally for 1 month
# Method: A diabetic neuropathy model was made by injecting streptozotocin (STZ) into the tail vein of male 6-week-old SD rats in a dose of 70 mg/kg body weight. After 4 months of housing, 10 mg/kg body weight/day of compound (5) which was suspended in 0.5% (w/v) methylcellulose was orally administered for 1 month. After administration, a hvderalgesia test was conducted using a pressure-stimulant algesiometer (produced by Ugo Basil) to determine the pain threshold of hind-limb.
# BDNF [8] = assay: BDNF content in pons of STZ diabetic neuropathy model rats; format: in vivo, SD rats; details: 10 mg/kg body weight/day orally for 1 month
# Method: (§3) A diabetic neuropathy model was made by injecting streptozotocin (STZ) into the tail vein of male 6-week-old SD rats in a dose of 70 mg/kg body weight. After 4 weeks, 0.1 to 3 mg/kg body weight of compound (5) was orally administered for 4 weeks, and each tissue was collected. The collected tissue was supplemented with 25 to 40 times of disruption buffer (0.1 M Tris-hydrochloride buffer, pH 7.6, containing 1 M sodium chloride, 2% BSA, 2 mM EDTA, 80 trypsin units/L of aprotinin and 0.02% sodium azide) in terms of the wet tissue weight, which was subjected to sonication. After 30 minutes of centrifugation at 15,000 rpm, the supernatant was used as the sample and the NGF and BDNF contents were determined in the same manner as in Experimental Example 1.
# (§4) A diabetic neuropathy model was made by injecting streptozotocin (STZ) into the tail vein of male 6-week-old SD rats in a dose of 70 mg/kg body weight. […]
# (§5) While, the pons were collected from brain stem to determine the contents of neurotrophic factors. The BDNF contents were determined in the similar manner as in Experimental Example 2. The NT-3 contents were determined in the similar manner as in Experimental Example 2 except that an anti-NT-3 antibody (Brain Res. 1994, 12, pp. 143-146; Clin Chim Acta 1994, 227, pp. 23-36) was used.
# NT-3 = NT-3 content in pons of STZ diabetic neuropathy model rats; format: in vivo, SD rats; details: 10 mg/kg body weight/day orally for 1 month
# Method: as §3, §4, §5
# [9] = 0.1 to 3 mg/kg body weight orally for 4 weeks, hippocampus, Mean ± SD (n = 8 to 9), *: p < 0.05 vs STZ group
# [10] = 0.1 to 3 mg/kg body weight orally for 4 weeks, sciatic nerve, Mean ± SD (n = 8 to 9), *: p < 0.05 vs STZ group
# [11] = Mean ± SD (n = 5 to 8), **: p < 0.01 vs STZ group
# [12] = pons, Mean ± SD (n = 10), **: p < 0.01 vs STZ group
compound,measurement,setting,value
"Cc1ccccc1OCCCc1oc(-n2ccnc2C)nc1-c1ccc(Cl)cc1 [Compound (5), 4-(4-chlorophenyl)-2-(2-methyl-1-imidazolyl)-5-[3-(2-methylphenoxy)propyl]oxazole]",NGF production/secretion promoting activity,NGF [1],excellent
same,BDNF production/secretion promoting activity,BDNF [2],excellent
same,NGF (pg/g tissue) Hippocampus,NGF [3]; [9],738 ± 105* pg/g tissue
same,NGF (pg/g tissue) Sciatic nerve,NGF [3]; [10],495 ± 143* pg/g tissue
same,NGF production/secretion promoting activity at the sciatic nerve and the hippocampus,"NGF [3]; oral, 4 weeks, result in words",excellent
same,BDNF (ng/g tissue) Hippocampus,BDNF [4]; [9],3.5 ± 0.3* ng/g tissue
same,BDNF (ng/g tissue) Sciatic nerve,BDNF [4]; [10],5.0 ± 0.6* ng/g tissue
same,BDNF production/secretion promoting activity at the sciatic nerve and the hippocampus,"BDNF [4]; oral, 4 weeks, result in words",excellent
same,MNCV (m/s),[5]; [11],54.9 ± 7.6** m/s
same,"motor nerve conduction velocity, effect versus STZ group",[5]; result in words,recovered
same,SNCV (m/s),[6]; [11],41.1 ± 7.9** m/s
same,"sensory nerve conduction velocity, effect versus STZ group",[6]; result in words,recovered
same,Pain threshold (g),"[7]; hind-limb, Mean ± SD (n = 10), **: p < 0.01 vs STZ group",109 ± 19** g
same,"hyperalgesia, effect versus STZ group",[7]; result in words,ameliorated
same,BDNF (pg/g tissue),BDNF [8]; [12],4151 ± 1161** pg/g tissue
same,"amount of BDNF in pons, effect versus STZ group",BDNF [8]; result in words,increased
same,NT-3 (pg/g tissue),NT-3; [12],352 ± 118** pg/g tissue
same,"amount of NT-3 in pons, effect versus STZ group",NT-3; result in words,increased
